The structures appear in SMILES notation. Read-outs that look alike come from different tables or passages of the source.

The target of test [1] is T1, beta-catenin/TCF4 engagement (Homo sapiens, UniProt P35222).
T1 construct: expressed in transfected cells; host or cells: HEK293
T1 sequence (P35222 1-781): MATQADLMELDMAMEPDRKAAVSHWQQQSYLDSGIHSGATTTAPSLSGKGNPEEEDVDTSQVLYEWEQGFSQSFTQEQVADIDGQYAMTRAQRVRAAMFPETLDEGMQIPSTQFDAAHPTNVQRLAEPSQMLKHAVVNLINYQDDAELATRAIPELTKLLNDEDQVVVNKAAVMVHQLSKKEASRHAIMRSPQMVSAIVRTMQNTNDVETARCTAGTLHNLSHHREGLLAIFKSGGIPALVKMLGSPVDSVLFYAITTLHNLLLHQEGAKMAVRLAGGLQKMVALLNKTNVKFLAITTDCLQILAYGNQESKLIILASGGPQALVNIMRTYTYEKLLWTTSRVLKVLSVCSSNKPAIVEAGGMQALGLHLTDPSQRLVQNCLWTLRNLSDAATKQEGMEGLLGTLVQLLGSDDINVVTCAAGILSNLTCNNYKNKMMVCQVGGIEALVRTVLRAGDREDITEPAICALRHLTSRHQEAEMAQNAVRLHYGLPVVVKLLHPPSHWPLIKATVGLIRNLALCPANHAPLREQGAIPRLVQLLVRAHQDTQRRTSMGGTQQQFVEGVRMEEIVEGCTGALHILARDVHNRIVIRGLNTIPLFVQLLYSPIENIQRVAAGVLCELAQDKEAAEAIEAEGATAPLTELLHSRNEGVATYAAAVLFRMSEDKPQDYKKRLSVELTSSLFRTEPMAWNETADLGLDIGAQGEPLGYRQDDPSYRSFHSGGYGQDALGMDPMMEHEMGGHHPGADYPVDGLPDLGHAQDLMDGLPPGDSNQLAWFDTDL
The experiment in a line: Nano-BRET target engagement assay (B-cat-Halo & TCF4-Luc in HEK293 cells). Type of test: cell-based. The settings on record: read-out: NanoBRET Abs IC50. On the technique in general: BRET reads energy transfer from a luciferase to a nearby fluorophore.

Test [2] concerns the target T2, full-length beta-Catenin (Uniprot ID P35222) (Homo sapiens, UniProt P35222).
T2 construct: 10 nM full-length beta-Catenin (Uniprot ID P35222)
T2 sequence (P35222 1-781): T1 sequence (P35222 1-781)
Kind of test: Fluorescence polarization IC50 (beta-catenin / 5FAM-TCF4 10-53 competition). Type of test: binding. The following applies: fluorescence polarization; read-out: beta-Catenin FP IC50. For orientation: Fluorescence polarisation rises when a labelled molecule tumbles more slowly, as on binding a larger partner.

Test [3] relates to TCF/LEF luciferase Reporter in DLD1 cells. Kind of test: TCF reporter assay (DLD1 TCF/LEF luciferase reporter, Bright-Glo). Type of test: cell-based. The settings on record: read-out: DLD1 4% Abs IC50. Summed up:
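DLD1 cells stably carrying a TCF/LEF luciferase reporter were plated at 5000 cells/well in RPMI + 4% FBS and treated overnight with a 1:2 compound dilution series. Bright-Glo luminescence read on day 3; viability by CellTiter-Glo. Absolute IC50 determined.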
For orientation: Reporter assays use an easily measured gene product as a stand-in for the process of interest.

Where [4] appears, read: DLD1 reporter, 4%, absolute IC50.

On to `CC(=O)N1CCC[C@]12CC=CCCCC1(CCCC=CCCCOC(=O)N3CC[C@@](C(=O)N[C@@H](Cc4ccsc4)C(=O)N[C@@H](Cc4csc5ccccc45)C(=O)N[C@@H](CCS(C)(=O)=O)C(N)=O)(C3)NC(=O)[C@H](CC(C)C)NC(=O)[C@H](Cc3ccccc3)NC(=O)[C@H](C)NC(=O)[C@H](C)NC(=O)[C@H](Cc3cccc(C(=O)O)c3)NC(=O)[C@H](CC(=O)O)NC1=O)NC(=O)[C@H](CC(C)(C)C)NC(=O)[C@H](CC(=O)O)NC2=O` (stereo partly drawn) [I-2061, Ac-PL3-Asp-Npg-B5-Asp-3COOHF-Ala-Ala-Phe-Leu-PyrS2-3Thi-BztA-Met2O-NH2], for which the IC50 in test [1] came to 1900 nM; in test [2], 13 nM; in test [3] (DLD1 4%), 1800 nM.

As to `CC(=O)N1CCC[C@]12CC=CCCCC1(CCCC=CCCCOC(=O)N3CC[C@@](C(=O)N[C@@H](Cc4ccsc4)C(=O)N[C@@H](Cc4csc5ccccc45)C(=O)N[C@@H](CCC(N)=O)C(N)=O)(C3)NC(=O)[C@H](CC(C)C)NC(=O)[C@H](Cc3ccccc3)NC(=O)[C@H](C)NC(=O)[C@H](C)NC(=O)[C@H](CCn3cc(CC(C)(C)C(=O)O)nn3)NC(=O)[C@H](CC(=O)O)NC1=O)NC(=O)[C@H](CC(C)(C)C)NC(=O)[C@H](CC(=O)O)NC2=O` (stereo partly drawn) [I-2077, Ac-PL3-Asp-Npg-B5-Asp-[CH2CMe2CO2H]TriAzDab-Ala-Ala-Phe-Leu-PyrS2-3Thi-BztA-Gln-NH2], the IC50 was found to be 12300 nM in test [1], 9 nM in test [2] and 5800 nM in test [3] (DLD1 4%).

On to `CC(=O)N1CCC[C@]12CC=CCCCC1(CCCC=CCCCOC(=O)N3CC[C@@](C(=O)N[C@@H](Cc4ccsc4)C(=O)N[C@@H](Cc4csc5ccccc45)C(=O)N[C@@H](CCC(N)=O)C(N)=O)(C3)NC(=O)[C@H](CC(C)C)NC(=O)[C@H](Cc3ccccc3)NC(=O)[C@H](C)NC(=O)[C@H](C)NC(=O)[C@H](Cn3cc(CC(=O)O)nn3)NC(=O)[C@H](CC(=O)O)NC1=O)NC(=O)[C@H](CC(C)(C)C)NC(=O)[C@H](CC(=O)O)NC2=O` (stereo partly drawn) [I-2084, Ac-PL3-Asp-Npg-B5-Asp-[CH2CO2H]TriAzDap-Ala-Ala-Phe-Leu-PyrS2-3Thi-BztA-Gln-NH2], for which the IC50 was determined as 9200 nM in test [1], 5 nM in test [2] and 9700 nM in test [3] (DLD1 4%).

Regarding `CC(=O)N1CCC[C@]12CC=CCCCC1(CCCC=CCCCOC(=O)N3CC[C@@](C(=O)N[C@@H](Cc4ccsc4)C(=O)N[C@@H](Cc4csc5ccccc45)C(=O)N[C@@H](CC(N)=O)C(=O)N[C@@H](CC(C)C)C(=O)N[C@@H](CC(C)C)C(=O)N[C@@H](CC(C)C)C(N)=O)(C3)NC(=O)[C@H](CC(C)C)NC(=O)[C@H](Cc3ccccc3)NC(=O)[C@H](C)NC(=O)[C@H](C)NC(=O)[C@H](Cc3cccc(C(=O)O)c3)NC(=O)[C@H](CC(=O)O)NC1=O)NC(=O)[C@H](CC(C)(C)C)NC(=O)[C@H](CC(=O)O)NC2=O` (stereo partly drawn) [I-2276, Ac-PL3-Asp-Npg-B5-Asp-3COOHF-Ala-Ala-Phe-Leu-PyrS2-3Thi-BztA-Asn-Leu-Leu-Leu-NH2], the IC50 in test [1] (absolute IC50) was 4000 nM; in test [2], 157 nM; in test [3] (setting [4]), 3900 nM.

As to `CC(=O)N1CCC[C@]12CC=CCCCC1(CCCC=CCCCOC(=O)N3CC[C@@](C(=O)N[C@@H](Cc4ccccc4C(F)(F)F)C(=O)N[C@@H](Cc4csc5ccccc45)C(=O)N[C@@H](CO)C(N)=O)(C3)NC(=O)[C@H](CC(C)C)NC(=O)[C@H](Cc3ccccc3)NC(=O)[C@H](C)NC(=O)[C@H](C)NC(=O)[C@H](Cn3cc(C(C)(C)C(=O)O)nn3)NC(=O)[C@H](CC(=O)O)NC1=O)NC(=O)[C@H](CC(C)(C)C)NC(=O)[C@H](CC(=O)O)NC2=O` (stereo partly drawn) [I-2374, Ac-PL3-Asp-Npg-B5-Asp-[CMe2CO2H]TriAzDap-Ala-Ala-Phe-Leu-PyrS2-2F3MeF-BztA-Ser-NH2], the results for the half-maximal inhibitory concentration (IC50) in test [1] (absolute IC50), in test [2] and in test [3] (setting [4]) were 3400 nM, 7 nM and 2600 nM, respectively.

For `CC(=O)N1CCC[C@]12CC=CCCCC1(CCCC=CCCCOC(=O)N3CC[C@@](C(=O)N[C@@H](Cc4ccccc4C(F)(F)F)C(=O)N[C@@H](Cc4csc5ccccc45)C(=O)N[C@@H](CCC(N)=O)C(=O)N[C@@H](CC(C)C)C(=O)N[C@@H](C)C(N)=O)(C3)NC(=O)[C@H](CC(C)C)NC(=O)[C@H](Cc3ccccc3)NC(=O)[C@H](C)NC(=O)[C@H](C)NC(=O)[C@H](Cc3cccc(C(=O)O)c3)NC(=O)[C@H](CC(=O)O)NC1=O)NC(=O)[C@H](CC(C)(C)C)NC(=O)[C@H](CC(=O)O)NC2=O` (stereo partly drawn) [I-2378, Ac-PL3-Asp-Npg-B5-Asp-3COOHF-Ala-Ala-Phe-Leu-PyrS2-2F3MeF-BztA-Gln-Leu-Ala-NH2], the figures for the IC50 in test [1] (absolute IC50), in test [2] and in test [3] (setting [4]) were 4800 nM, 31 nM and 1000 nM, respectively.

In the case of `CC(=O)N1CCC[C@]12CC=CCCCC1(CCCC=CCCCOC(=O)N3CC[C@@](C(=O)N[C@@H](Cc4ccccc4C(F)(F)F)C(=O)N[C@@H](Cc4csc5ccccc45)C(=O)N[C@@H](CCC(N)=O)C(=O)N[C@@H](CC(C)C)C(=O)N[C@@H](CCC(N)=O)C(N)=O)(C3)NC(=O)[C@H](CC(C)C)NC(=O)[C@H](Cc3ccccc3)NC(=O)[C@H](C)NC(=O)[C@H](C)NC(=O)[C@H](Cc3cccc(C(=O)O)c3)NC(=O)[C@H](CC(=O)O)NC1=O)NC(=O)[C@H](CC(C)(C)C)NC(=O)[C@H](CC(=O)O)NC2=O` (stereo partly drawn) [I-2382, Ac-PL3-Asp-Npg-B5-Asp-3COOHF-Ala-Ala-Phe-Leu-PyrS2-2F3MeF-BztA-Gln-Leu-Gln-NH2], the IC50 amounted to 4000 nM in test [1] (absolute IC50), 37 nM in test [2] and 7600 nM in test [3] (setting [4]).

On to `CC(=O)N1CCC[C@]12CC=CCCCC1(CCCC=CCCCOC(=O)N3CC[C@@](C(=O)N[C@@H](Cc4ccccc4C(F)(F)F)C(=O)N[C@@H](Cc4csc5ccccc45)C(=O)N[C@@H](CCC(N)=O)C(=O)N[C@@H](CC(C)C)C(=O)N[C@H](C(N)=O)[C@@H](C)O)(C3)NC(=O)[C@H](CC(C)C)NC(=O)[C@H](Cc3ccccc3)NC(=O)[C@H](C)NC(=O)[C@H](C)NC(=O)[C@H](Cc3cccc(C(=O)O)c3)NC(=O)[C@H](CC(=O)O)NC1=O)NC(=O)[C@H](CC(C)(C)C)NC(=O)[C@H](CC(=O)O)NC2=O` (stereo partly drawn) [I-2383, Ac-PL3-Asp-Npg-B5-Asp-3COOHF-Ala-Ala-Phe-Leu-PyrS2-2F3MeF-BztA-Gln-Leu-Thr-NH2], for which the IC50 in test [1] (absolute IC50) amounted to 4200 nM; in test [2] it was 77 nM; in test [3] (setting [4]) it was 800 nM.

For the molecule `CC(=O)N1CCC[C@]12CC=CCCCC1(CCCC=CCCCOC(=O)N3CC[C@@](C(=O)N[C@@H](Cc4ccccc4C(F)(F)F)C(=O)N[C@@H](Cc4csc5ccccc45)C(=O)N[C@@H](CCC(N)=O)C(=O)N[C@@H](CC(C)C)C(=O)N[C@@H](CO)C(N)=O)(C3)NC(=O)[C@H](CC(C)C)NC(=O)[C@H](Cc3ccccc3)NC(=O)[C@H](C)NC(=O)[C@H](C)NC(=O)[C@H](Cc3cccc(C(=O)O)c3)NC(=O)[C@H](CC(=O)O)NC1=O)NC(=O)[C@H](CC(C)(C)C)NC(=O)[C@H](CC(=O)O)NC2=O` (stereo partly drawn) [I-2384, Ac-PL3-Asp-Npg-B5-Asp-3COOHF-Ala-Ala-Phe-Leu-PyrS2-2F3MeF-BztA-Gln-Leu-Ser-NH2], the half-maximal inhibitory concentration (IC50) in test [1] (absolute IC50) turned out to be 4600 nM; in test [2], 5 nM; in test [3] (setting [4]), 1100 nM.

As for `CC[C@H](C)[C@H](NC(=O)[C@H](CC(C)C)NC(=O)[C@H](CCC(N)=O)NC(=O)[C@H](Cc1csc2ccccc12)NC(=O)[C@H](Cc1ccccc1C(F)(F)F)NC(=O)[C@]12CCN(C1)C(=O)OCCCC=CCCCC1(CCCC=CC[C@]3(CCCN3C(C)=O)C(=O)N[C@@H](CC(=O)O)C(=O)N[C@@H](CC(C)(C)C)C(=O)N1)C(=O)N[C@@H](CC(=O)O)C(=O)N[C@@H](Cc1cccc(C(=O)O)c1)C(=O)N[C@@H](C)C(=O)N[C@@H](C)C(=O)N[C@@H](Cc1ccccc1)C(=O)N[C@@H](CC(C)C)C(=O)N2)C(N)=O` (stereo partly drawn) [I-2385, Ac-PL3-Asp-Npg-B5-Asp-3COOHF-Ala-Ala-Phe-Leu-PyrS2-2F3MeF-BztA-Gln-Leu-Ile-NH2], the IC50 stood at 4000 nM in test [1] (absolute IC50), 563 nM in test [2] and 1800 nM in test [3] (setting [4]).

`CC(=O)N1CCC[C@]12CC=CCCCC1(CCCC=CCCCOC(=O)N3CC[C@@](C(=O)N[C@@H](Cc4ccccc4C(F)(F)F)C(=O)N[C@@H](Cc4csc5ccccc45)C(=O)N[C@@H](CCC(N)=O)C(=O)N[C@@H](CC(C)C)C(=O)NC(C)(C)C(N)=O)(C3)NC(=O)[C@H](CC(C)C)NC(=O)[C@H](Cc3ccccc3)NC(=O)[C@H](C)NC(=O)[C@H](C)NC(=O)[C@H](Cc3cccc(C(=O)O)c3)NC(=O)[C@H](CC(=O)O)NC1=O)NC(=O)[C@H](CC(C)(C)C)NC(=O)[C@H](CC(=O)O)NC2=O` (stereo partly drawn) [I-2386, Ac-PL3-Asp-Npg-B5-Asp-3COOHF-Ala-Ala-Phe-Leu-PyrS2-2F3MeF-BztA-Gln-Leu-Aib-NH2]: the concentration for half-maximal inhibition (IC50) in test [1] (absolute IC50) came out at 2800 nM; in test [2] it was 75.5 nM; in test [3] (setting [4]), 700 nM.

Usually IC50 stands for the concentration needed to halve the response being measured.

Source of the values: patent US20240116985A1, “STAPLED PEPTIDES AND METHODS THEREOF” (priority 2020, published 2024).
